Results published in BindingDB's records for doi:10.1016/j.bmcl.2012.09.045 (East China University of Science and Technology, 2012).

Target: T1, Bile acid receptor (Homo sapiens, UniProt Q96RI1)
T1 sequence (Q96RI1 whole entry): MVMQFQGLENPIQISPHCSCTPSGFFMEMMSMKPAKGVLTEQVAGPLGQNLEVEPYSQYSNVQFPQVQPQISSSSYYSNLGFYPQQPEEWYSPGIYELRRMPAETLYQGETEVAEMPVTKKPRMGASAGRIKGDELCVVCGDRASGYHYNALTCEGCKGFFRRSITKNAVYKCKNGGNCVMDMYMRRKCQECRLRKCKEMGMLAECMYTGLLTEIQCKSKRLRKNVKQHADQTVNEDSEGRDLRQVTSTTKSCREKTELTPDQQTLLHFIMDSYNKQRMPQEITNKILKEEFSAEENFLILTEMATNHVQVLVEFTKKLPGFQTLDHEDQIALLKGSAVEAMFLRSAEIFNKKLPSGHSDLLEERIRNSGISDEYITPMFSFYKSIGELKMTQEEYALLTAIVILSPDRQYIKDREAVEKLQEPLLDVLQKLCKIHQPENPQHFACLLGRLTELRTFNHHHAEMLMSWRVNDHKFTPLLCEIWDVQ
Assay: Agonist activity at FXR

- EC50: 343 nM
SMILES: COC(=O)/C=C/c1cccc(N(Cc2ccc(-c3ccc(C(C)(C)C)cc3)cc2)C(=O)C(C)C)c1
